Experiments:
AMPA receptors = assay: Whole-cell patch-clamp, AMPA-induced currents in acutely isolated hippocampal neurons; assay type: cell-based, rat; details: 10 μM WZB117
Experimental: Hippocampal neurons were obtained from Sprague-Dawley rats (aged P7-14). Briefly, the isolated hippocampal tissues were cut into approximately […] slices along the sagittal plane and were digested with 3 mg/ml proteinase (Sigma-Aldrich) at 32°C for 8 min. Then 1 mg/ml bovine serum albumin (Sangon Biotech) and 1 mg/ml trypsin inhibitor (Sigma-Aldrich) were used to stop the digestion. A few slices of the hippocampus were gently blown into single cells with the dissecting solution, then transferred to a dish and left to rest for 20 min before experiments. The dishes were preprocessed. Essentially, the bottom of the dish was covered with discarded cell suspension the day before the experiment and was washed and dried the next day, which prevented the neurons from sticking to the bottom too tightly. The dissecting solution contained (in mM): 82 Na2SO4, 30 K2SO4, 5 MgCl2, 1 Na pyruvate, 10 HEPES, and 20 glucose. The pH was adjusted to 7.2 using NaOH ([Xie et al., 2020]).
Whole-cell patch-clamp recordings were performed at room temperature (22–25°C) using an EPC-10 amplifier and Patch Master Software (HEKA). Pipettes were pulled from borosilicate glass capillaries (World Precision Instruments), and the resistances were 3–5 MΩ when filled with the intracellular solution. […]

[1] = tested on: GluN1/GluN3A with mutations W671A and L673A of the GluN3A subunit; assay: Whole-cell patch-clamp on transiently transfected CHO cells, GluN3A pre-M1 alanine mutants; assay type: cell-based
Experimental: To establish GluN1/GluN3A stable cell lines, the human GluN1-1a (GenBank: NP_015566.1) and the rat GluN3A (GenBank: NP_612555.1) genes were subcloned into the pcDNA5-FRT-To and pcDNA3.1 vectors, respectively. An EGFP tag was added to the C-terminus of GluN1 or GluN3A using a T2A linker for identification of transfected cells during transient transfection. Point mutations were introduced by site-directed mutagenesis using PrimeSTAR (Takara). The human GluN2A (GenBank: NP_000824.1) gene was subcloned into the pcDNA3.1 vector. The chimeras GluN3A^670-673 MWPL/LEPF and GluN2A^550-553 LEPF/MWPL were generated using In-Fusion HD Cloning kits (Takara). All constructs were confirmed by DNA sequencing (Beijing Genomics Institute).
The Flp-in T-Rex 293 cell lines (Invitrogen), stably expressing GluN1/GluN3A were grown in DMEM basal medium (Gibco) supplemented with 10% fetal bovine serum (FBS, Invitrogen), 15 μg/ml blasticidin S (Invitrogen), 50 μg/ml hygromycin B (Invitrogen) and 500 μg/ml G418 (Gibco). Expression in cell lines was induced with 1 μg/ml doxycycline (Invitrogen) 24–28 h prior to the experiments. Chinese hamster ovary (CHO) cells were grown in DMEM-F12 basal medium (Gibco) supplemented with 10% FBS. In the study on the action sites of WZB117, all whole-cell patch-clamp recordings were performed on CHO cells. […]

GluN1/GluN2A/GluN3A = assay: Whole-cell patch-clamp on HEK-293 cells transiently transfected with GluN1/GluN2A/GluN3A (1:1:2); assay type: cell-based; details: 30 μM WZB117; 100 μM glutamate and 100 μM glycine; mixed receptor population
Experimental: Whole-cell patch-clamp recordings were performed at room temperature (22–25°C) using an EPC-10 amplifier and Patch Master Software (HEKA). Pipettes were pulled from borosilicate glass capillaries (World Precision Instruments), and the resistances were 3–5 MΩ when filled with the intracellular solution. The extracellular solution contained (in mM): 140 NaCl, 2.8 KCl, 1 CaCl2, 10 HEPES and 20 sucrose (290–300 mOsm), pH adjusted to 7.3 using NaOH. The pipette solution contained (in mM): 115 CsF, 10 CsCl, 10 HEPES and 10 BAPTA (280–290 mOsm), pH adjusted to 7.2 using CsOH ([Grand et al., 2018]). When recording in hippocampal neurons, the extracellular solution contained (in mM): 140 NaCl, 5 KCl, 1 CaCl2, 1.25 MgCl2, 10 glucose, and 10 HEPES, and the pH was adjusted to 7.4 using NaOH, and the pipette solution contained (in mM): 140 KCl, 1 MgCl2, 10 EGTA, and 10 HEPES, and the pH was adjusted to 7.2 using KOH ([Xie et al., 2020]). Drug-containing solutions were applied through an RSC-200 Rapid Solution Changer with a 9-tube head (BioLogic Co., France), in which the cell is positioned close to the output of a capillary. […]
Supplementary Figure S3 Effects of WZB117 on currents from HEK-293 cells co-expressing GluN1/GluN2A/GluN3A subunits. […] The data of GluN1/GluN2A were analyzed from Figure 3D. […]

GluN1/GluN3A receptors = GluN1/GluN3A receptors (UniProt Q05586+Q9R1M7); assay: Whole-cell patch-clamp recording on GluN1/GluN3A Flp-in T-REx 293 stable cell lines; assay type: cell-based, human GluN1-1a, rat GluN3A; design: expressed in transfected cells
Sequence of GluN1/GluN3A receptors (Q9R1M7 24-1135, other chains not shown): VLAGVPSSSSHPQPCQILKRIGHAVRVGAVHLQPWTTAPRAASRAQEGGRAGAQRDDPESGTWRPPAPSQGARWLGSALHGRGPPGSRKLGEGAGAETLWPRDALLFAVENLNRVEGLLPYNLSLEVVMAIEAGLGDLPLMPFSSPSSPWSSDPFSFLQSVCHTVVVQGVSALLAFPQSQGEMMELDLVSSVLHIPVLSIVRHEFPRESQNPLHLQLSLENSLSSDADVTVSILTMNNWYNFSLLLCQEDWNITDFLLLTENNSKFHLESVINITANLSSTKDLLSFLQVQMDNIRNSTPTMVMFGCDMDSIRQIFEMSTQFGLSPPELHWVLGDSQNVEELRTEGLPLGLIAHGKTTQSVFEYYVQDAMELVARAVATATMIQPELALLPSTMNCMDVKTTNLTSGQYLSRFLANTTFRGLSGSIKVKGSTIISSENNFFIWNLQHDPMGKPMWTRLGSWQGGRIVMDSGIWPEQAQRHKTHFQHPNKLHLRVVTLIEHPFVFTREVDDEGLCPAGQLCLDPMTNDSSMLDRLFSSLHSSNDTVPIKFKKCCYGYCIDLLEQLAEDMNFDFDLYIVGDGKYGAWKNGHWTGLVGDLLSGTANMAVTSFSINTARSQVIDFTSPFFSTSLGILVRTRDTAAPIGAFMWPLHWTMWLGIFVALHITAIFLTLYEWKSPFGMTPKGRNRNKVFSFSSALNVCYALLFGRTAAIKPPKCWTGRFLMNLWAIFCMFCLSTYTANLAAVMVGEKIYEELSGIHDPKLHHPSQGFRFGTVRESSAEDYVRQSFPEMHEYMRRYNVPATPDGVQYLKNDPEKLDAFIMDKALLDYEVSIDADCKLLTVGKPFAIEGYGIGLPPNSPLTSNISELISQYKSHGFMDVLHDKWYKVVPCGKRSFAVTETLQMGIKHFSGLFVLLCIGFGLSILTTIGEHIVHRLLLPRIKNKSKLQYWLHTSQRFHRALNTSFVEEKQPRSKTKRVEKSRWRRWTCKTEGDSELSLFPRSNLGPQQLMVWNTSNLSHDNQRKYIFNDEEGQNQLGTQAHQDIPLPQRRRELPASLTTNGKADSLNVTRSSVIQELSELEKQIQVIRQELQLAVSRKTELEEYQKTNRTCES

O=C(Oc1cccc(F)c1OC(=O)c1cccc(O)c1)c1cccc(O)c1 [WZB117, 3-fluoro-1,2-phenylene bis(3-hydroxybenzoate)]
effect on AMPA-induced currents (AMPA receptors): almost ineffective | influence of mutations on inhibitory effect [1]: significantly influenced the inhibitory effect | I drug/I cotrol (GluN1/GluN2A/GluN3A): 0.22 ± 0.04 | voltage-dependence of inhibition activity (GluN1/GluN3A receptors; 3 μM WZB117, +40 mV and −60 mV): no significant change | IC50 (GluN1/GluN3A receptors; pH 6.9): 1270 ± 390 nM | IC50 (GluN1/GluN3A receptors; pH 8.3): 1090 ± 220 nM

— PMC9218946, “Identification of a Subtype-Selective Allosteric Inhibitor of GluN1/GluN3 NMDA Receptors” (Frontiers in Pharmacology, 2022)
